Laboratory results from patent US9943536B2, “Reactivation of HIV-1 gene expression to treat persistent HIV infection” (UNIVERSITÉ LIBRE DE BRUXELLES, priority 2011, dated 2018).
Several values for one entry are separate records, joined by “and”; a condition that tells them apart may be missing. Identical values can stand only once.

Legend:
Assay type in all cases: cell-based
[1] = system: HIV-1 in HLA DR− CD25− CD69− CD4+ T cells from HIV-1-infected cART-treated patients; assay: HIV-1 recovery in resting memory (HLA DR− CD25− CD69−) CD4+ T cells from cART-treated patients; conditions: for concentration of viral RNA in culture supernatants: HLA DR− CD25− CD69− CD4+ T cells, six days after treatment
Description: Further to Table 3: Cultures of patient cells were mock-treated or treated with indicated compounds. Six days after treatment, the concentration of viral RNA in culture supernatants was determined (in copies/ml; l means below the threshold and ‘/’ indicates an untested condition). Total HIV-1 DNA is expressed as HIV-1 DNA copies/10^6 cells or as log HIV-1 DNA copies/10^6 cells.
FIG. 3. […] Cultures of resting memory CD4^+ T cells were mock-treated or treated as indicated. Six days after treatment, the concentration of viral RNA in culture supernatants was measured (in copies/ml). […] The reactivated patient cultures were classified in relevant categories where HIV-1 recovery after the combined treatment presented a higher viral production than after the individual treatment. […] The reactivated patient cultures were subdivided in two relevant categories: (b1) cultures in which HIV-1 recovery after the combined treatment was higher than after the individual treatments, (b2) and cultures in which a synergistic reactivation of viral RNA production was observed after the combined treatments.
(§1) Table 4. […] Cultures of resting memory CD4^+ T cells were mock-treated or treated with BIX-01294. Six days after treatment, the concentration of viral RNA in culture supernatants was determined in copies/ml (l indicates below the threshold).
as §1, with “FIG.” for “Table”, “BIX-01294 alone, with SAHA alone or with the combinationSAHA+BIX-01294.” for “BIX-01294.”, “(I” for “(l”
Cultures of 2.5×10^5 HLA DR^− CD 25 CD69^− CD4^+ T cells were mock-treated or treated with BIX-01294. Six days after treatment, the concentration of viral RNA in culture supernatants was determined (Table 4).

[2] = system: HIV-1 in CD8+-depleted PBMCs from HIV-1-infected cART-treated patients; assay: HIV-1 recovery in ex-vivo cultures of CD8+-depleted PBMCs from cART-treated patients; conditions: for concentration of viral RNA in culture supernatants: six days after treatment
Description: Table 1. […] Cultures of CD8^+-depleted PBMCs were mock-treated or treated with chaetocin (30, 60 or 90 nmol/l) or with the positive control. Six days after treatment, the concentration of viral RNA in culture supernatants was determined (in copies/ml; ‘l’ indicates below the threshold).
(§2) (a) Cultures of CD8^+-depleted PBMCs were mock-treated or treated with chaetocin (90 nmol/l). Six days after treatment, the concentration of viral RNA in culture supernatants was determined. Total HIV-1 DNA is expressed as HIV-1 DNA copies/10^6 cells or as log HIV-1 DNA copies/10^6 cells (‘/’ indicates not-tested condition). (b) Limiting-dilution cultures of HLA DR^− CD4^+ T cells were mock-treated or treated with chaetocin (45 or 90 nmol/l). The concentration of viral RNA in culture supernatants was determined. The last positive dilution culture indicates the presence of at least one cell carrying replication-competent and chaetocin-responsive virus.
(§3) Cultures comprising 6.10^6 CD8^+-depleted PBMCs were mock-treated or treated with chaetocin. Six days after treatment, the concentration of viral RNA in culture supernatants was determined by the Amplicor method (Roche Diagnostics). The results are depicted in Table 1 and 2A. The percentage of reactivation was calculated on all patients reactivated. Nine out of the eighteen tested PBMC cultures reactivated HIV-1 expression in response to chaetocin treatment, while none of them did when mock-treated. Subsequently, limiting-dilution cultures of HLA DR^− CD4^+ T cells were performed and these cultures were mock-treated or treated with chaetocin. The last positive dilution culture indicates the presence of at least one cell carrying replication-competent HIV-1 virus. The concentration of viral RNA in culture supernatants was determined by the Amplicor method (Roche Diagnostics). Values are expressed in HIV-1 RNA copies/ml.

[3] = system: HIV-1 in HLA DR− CD4+ T cells from HIV-1-infected cART-treated patients; assay: HIV-1 recovery in limiting-dilution cultures of HLA DR− CD4+ T cells from cART-treated patients; conditions: for concentration of viral RNA in culture supernatants: limiting dilution, one line per patient
Description: as §2, §3

[4] = one line per patient culture H19-H34 (Table 3), l = below the threshold

CC(=O)O[C@@]12C[C@@H](C)[C@@]3(O)[C@@H](C=C(CO)C[C@]4(O)C(=O)C(C)=C[C@@H]34)[C@@H]1C2(C)C [prostratin, 12-deoxyphorbol 13-acetate]
concentration of viral RNA in culture supernatants [1, 4]: 612 copies/ml and 1380 copies/ml and 1064 copies/ml and 2508 copies/ml and 2540 copies/ml and 3532 copies/ml and 704 copies/ml and 420 copies/ml

CN1C(=O)[C@@]23C[C@]4([C@]56C[C@@]78SS[C@@](CO)(C(=O)N7[C@H]5Nc5ccccc56)N(C)C8=O)c5ccccc5N[C@@H]4N2C(=O)[C@]1(CO)SS3 [chaetocin]
% of reactivation ([2]; 18 patients H1-H18, chaetocin 90 nmol/l or positive control): 50% | concentration of viral RNA in culture supernatants ([2]; CD8+-depleted PBMCs, one line per patient culture H1-H18 (Table 3), l = below the threshold): 1825 copies/ml and 354 copies/ml and 2057 copies/ml and 2371 copies/ml and 1566 copies/ml and 797 copies/ml and 477 copies/ml and 2388 copies/ml and 467 copies/ml | Reactivated patients ([2]; chaetocin 30 nM, of 6 patients H1-H6): 1 | concentration of viral RNA in culture supernatants ([2]; chaetocin 30 nM, one line per patient culture, I = below the threshold): 1139 copies/ml | Reactivated patients ([2]; chaetocin 60 nM, of 6 patients H1-H6): 3 | concentration of viral RNA in culture supernatants ([2]; chaetocin 60 nM, one line per patient culture, I = below the threshold): 222 copies/ml and 452 copies/ml and 1924 copies/ml | Reactivated patients ([2]; chaetocin 90 nM, of 6 patients H1-H6): 4 | concentration of viral RNA in culture supernatants ([2]; chaetocin 90 nM, one line per patient culture, I = below the threshold): 2371 copies/ml and 1825 copies/ml and 354 copies/ml and 2057 copies/ml | concentration of viral RNA in culture supernatants ([2]; chaetocin 90 nmol/l, one line per patient culture H1-H18, I = below the threshold): 2371 copies/ml and 1566 copies/ml and 797 copies/ml and 477 copies/ml and 2388 copies/ml and 467 copies/ml and 1825 copies/ml and 354 copies/ml and 2057 copies/ml | HIV-1 recovery, share of CD8+-depleted PBMCs cultures ([2]; cultures from HIV-1+ cART-treated patients (Table 2a)): 50% | Reactivated patients ([2]; of 18 patients H1-H18, chaetocin 90 nmol/l or positive control): 9 | concentration of viral RNA in culture supernatants ([3]; chaetocin 45 nM, 1.5 × 10^6 cells): 288 copies/ml and 831 copies/ml | concentration of viral RNA in culture supernatants ([3]; chaetocin 45 nM, 5 × 10^5 cells): 179 copies/ml and 245 copies/ml and 89 copies/ml and 97 copies/ml and 769 copies/ml | concentration of viral RNA in culture supernatants ([3]; chaetocin 45 nM, 10^5 cells): 83 copies/ml and 238 copies/ml | concentration of viral RNA in culture supernatants ([3]; chaetocin 45 nM, 10^6 cells): 284 copies/ml and 94 copies/ml and 292 copies/ml and 702 copies/ml | concentration of viral RNA in culture supernatants ([3]; chaetocin 90 nM, 1.5 × 10^6 cells): 377 copies/ml and 1050 copies/ml | concentration of viral RNA in culture supernatants ([3]; chaetocin 90 nM, 5 × 10^4 cells): 76 copies/ml | concentration of viral RNA in culture supernatants ([3]; chaetocin 90 nM, 5 × 10^5 cells): 147 copies/ml and 118 copies/ml and 68 copies/ml and 52 copies/ml and 1043 copies/ml | concentration of viral RNA in culture supernatants ([3]; chaetocin 90 nM, 10^5 cells): 51 copies/ml and 50 copies/ml and 47 copies/ml and 359 copies/ml | concentration of viral RNA in culture supernatants ([3]; chaetocin 90 nM, 10^6 cells): 178 copies/ml and 131 copies/ml and 791 copies/ml | HIV-1 recovery, share of resting CD4+ T-cell cultures ([3]; cultures from HIV-1+ cART-treated patients (Table 2b)): 86% | concentration of viral RNA in culture supernatants [1, 4]: 832 copies/ml and 180 copies/ml and 2780 copies/ml and 1244 copies/ml and 1616 copies/ml and 2000 copies/ml and 680 copies/ml and 4944 copies/ml and 300 copies/ml and 328 copies/ml and 2456 copies/ml and 1000 copies/ml

O=C(CCCCCCC(=O)Nc1ccccc1)NO [SAHA, suberoylanilide hydroxamic acid]
concentration of viral RNA in culture supernatants [1, 4]: 624 copies/ml and 520 copies/ml and 252 copies/ml and 2248 copies/ml and 908 copies/ml and 952 copies/ml and 336 copies/ml and 540 copies/ml and 1480 copies/ml and 420 copies/ml and 416 copies/ml and 412 copies/ml

COc1cc2nc(N3CCCN(C)CC3)nc(NC3CCN(Cc4ccccc4)CC3)c2cc1OC [BIX-01294]
% of reactivation ([1]; 10 patients (Table 4)): 80% | concentration of viral RNA in culture supernatants ([1]; one line per patient culture (Table 4), I = below the threshold): 412 copies/ml and 1 780 copies/ml and 1 360 copies/ml and 665 copies/ml and 1624 copies/ml and 1385 copies/ml and 250 copies/ml and 4292 copies/ml | concentration of viral RNA in culture supernatants [1, 4]: 665 copies/ml and 1624 copies/ml and 1385 copies/ml and 250 copies/ml and 4292 copies/ml and 412 copies/ml and 1780 copies/ml and 1360 copies/ml | reactivated HIV-1 expression, share of resting CD4+ T-cell cultures ([1]; cultures from HIV-1+ cART-treated patients (Table 4)): 80% | Reactivated patients ([1]; of 10 patients (Table 4)): 8
